Laboratory results: PubChem BioAssay (NCI)
Several values for one entry are separate records, joined by “and”; a condition that tells them apart may be missing. Equal values may be shown once.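 Dose response: 5 concentrations. Exposure: 48 h. Format: 96-well plates. Endpoint: linear interpolation; highest concentration if not reached. GI50 = concentration required for 50% inhibition of growth. At the TGI there is no net growth.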

Key:
Test in all cases: NCI anticancer screen, dose series, 48 h
[1] = test system: SF-539 CNS
[2] = test system: NCI-H23 lung
[3] = test system: UACC-62 melanoma
[4] = test system: MALME-3M melanoma
[5] = test system: HOP-62 NSCLC
[6] = test system: SF-295 CNS
[7] = test system: DU-145 prostate
[8] = test system: NCI/ADR-RES ovarian
[9] = test system: HOP-92 NSCLC
[10] = test system: SK-OV-3 ovarian

Row | Structure (SMILES) | GI50 [1] [µM] | TGI [1] [µM] | GI50 [2] | TGI [2] | GI50 [3] | TGI [3] | GI50 [4] [µM] | TGI [4] | GI50 [5] | TGI [5] | GI50 [6] | TGI [6] | GI50 [7] | TGI [7] | GI50 [8] | TGI [8] | GI50 [9] [µM] | TGI [9] | GI50 [10] | TGI [10]
1 | C=C(C)[C@@H]1CC[C@]2(C)[C@H](CC=C3[C@@H]4CC(C)(C)CC[C@]4(C(=O)OC)CC[C@]32C)[C@@]1(C)CC/C(N)=N/O | 1.8 | 3.95 | 2.84 µM | 10.1 µM | 1.52 µM | 3.11 µM | 1.69 | 3.33 µM | 4.44 µM | 20.6 µM | 1.79 µM | 4.01 µM | 1.95 µM | 4.28 µM | 2.09 µM | 5.42 µM | 1.42 | 3.2 µM | 4.62 µM | 27.2 µM
2 | COc1cc2c3c(n(CCCn4cccn4)c(=O)c2cc1OC)-c1cc2c(cc1C3=O)OCO2 | 0.56 | 5.08 | 0.807 µM | 4.38 µM | 0.359 µM | 1.78 µM | 9.4 | > 96.7 µM | 0.449 µM | 11.1 µM | 0.581 µM | 32 µM | 0.437 µM | 5.57 µM | 1.3 µM | 16.5 µM | 1.34 | 18.6 µM | 4.13 µM | > 100 µM
3 | Nc1nc(N)c2ncn(Cc3c(Cl)cccc3Cl)c2n1 | – | > 100 | – | > 100 µM | – | > 100 µM | – | > 100 µM | – | > 100 µM | – | > 100 µM | – | > 100 µM | – | > 100 µM | – | > 100 µM | – | > 100 µM
4 | Cc1cc(C)c(S(=O)(=O)Oc2ccccc2[N+](=O)[O-])c(C)c1 | 2.16 | > 23.1 | 4.69 µM | > 100 µM | 2.46 µM | > 100 µM | 1.26 | > 100 µM | 3.33 µM | > 100 µM | 1.67 µM | > 24.3 µM | 2.38 µM | > 31.5 µM | 1.01 µM | > 27.4 µM | 1.98 | 25.4 µM | 2.81 µM | > 29.2 µM
5 | CCN(CCc1ccc(F)cc1)c1ccc(CO)c(Cl)c1 | 15.7 | 29.3 | 12.2 µM | 31 µM | 1.32 µM | 8.41 µM | 16 | 31.1 µM | 13.1 µM | 26.2 µM | 3.44 µM | 17.6 µM | 14.4 µM | 29.2 µM | 11.8 µM | 28.1 µM | 1.94 | 13.5 µM | 12.4 µM | 27.8 µM
6 | COc1cc(/C=C\c2cc(/C=C\c3ccc(O)c(OC)c3)n(C(=O)Nc3ccc(C(F)(F)F)cc3)n2)ccc1O | 2.37 | 7.45 | 2.13 µM | 6.48 µM | 2.02 µM | 4.76 µM | 2.89 | 8.4 µM | 3.6 µM | 16.2 µM | 2.89 µM | 9.85 µM | 3.67 µM | 13 µM | 3.51 µM | > 100 µM | 2.35 | 6.79 µM | 4.02 µM | 66.7 µM
7 | COc1cc2c(cc1OCCN1C(=O)c3cccc4cccc(c34)C1=O)N=C[C@@H]1CCCN1C2=O | – | 17.3 | 16.8 µM | 20.2 µM and 32.3 µM | 17.8 µM | 14.9 µM and 37.5 µM | 11.7 | 15.7 µM and 24.5 µM | – | 47.5 µM | 32 µM | 50 µM and > 100 µM | 18.1 µM | 17.4 µM and 35.9 µM | 22.5 µM | 45.8 µM and 56.3 µM | 19.5 | 17.3 µM and 55.4 µM | – | 46.5 µM
8 | S=C(S)NCCCn1ccnc1 | – | > 100 | – | > 100 µM | – | > 100 µM | – | > 100 µM | – | > 100 µM | – | > 100 µM | – | > 100 µM | – | > 100 µM | – | > 100 µM | – | > 100 µM
9 | COc1ncnc2c1ncn2C/C(Br)=C(\Br)CCl | 2.17 | 7.61 | 3.16 µM | 11.4 µM | 2.65 µM | 12 µM | 1.49 | 3.21 µM | 3.9 µM | 14.1 µM | 10.6 µM | 23.3 µM | 5.31 µM | 18.2 µM | 6.12 µM | 18.9 µM | 4.08 | 16.4 µM | 14.8 µM | 28 µM
10 | COc1ccc(-n2nc(C)c3c(Nc4ccc(NC(=O)Nc5cc(C(F)(F)F)ccc5F)cc4)ncnc32)cc1 | 1.94 | 4.87 | 2.22 µM | 6.71 µM | 1.88 µM | 4.34 µM | 1.76 | 4.06 µM | 2.97 µM | 11.4 µM | 2.06 µM | 4.43 µM | 3.65 µM | > 100 µM | 2.93 µM | 11.9 µM | 2.23 | 6.26 µM | 3.48 µM | 82.3 µM
11 | O=C(O)C1(C(=O)O)CCN(S(=O)(=O)c2ccccc2)CC1 | – | > 100 | – | > 100 µM | – | > 100 µM | – | > 100 µM | – | > 100 µM | – | > 100 µM | – | > 100 µM | – | > 100 µM | – | > 100 µM | – | > 100 µM
12 | COc1cccc2c1C(=O)c1c(O)c3c(c(O)c1C2=O)C[C@@](O)(C(=O)COC(=O)c1cccnc1)C[C@@H]3OC1CC(N)C(O)C(C)O1 (some centres undefined) | 0.0744 | 0.673 | 0.178 µM | 1.02 µM | 0.103 µM | 0.268 µM | 0.115 | 0.353 µM | 0.124 µM | 1.28 µM | 0.148 µM | 2.29 µM | 0.223 µM | 14.1 µM | 3.95 µM | > 100 µM | 0.0859 | 0.737 µM | 0.382 µM | 26 µM
13 | C[C@]1(O)CC(=O)[C@]2(O)C3=C(C=C[C@]2(O)C1)C(=O)c1c(O)cccc1C3=O | 4.67 | 17 | 1.94 µM | 4.71 µM | 1.86 µM | 3.91 µM | 0.492 | 1.84 µM | 15.6 µM | 42.6 µM | 18.3 µM | 34.4 µM | 1.75 µM | 3.24 µM | 5.84 µM | 40.3 µM | 1.51 | 2.9 µM | 17.5 µM | 42 µM
14 | Cc1cc2cc(Oc3ccnc(Nc4cccc(CS(=O)(=O)NCCN(C)C)c4)n3)ccc2[nH]1 | 3.05 | 13.3 | 8.8 µM | 23.6 µM | 3.85 µM | 14.4 µM | 2.96 | 10.5 µM | 7 µM | 21.6 µM | 8.04 µM | 21.5 µM | 9.86 µM | 21.6 µM | 17.9 µM | 43.6 µM | 1.78 | 5.68 µM | 14.4 µM | 29.5 µM
15 | COc1ccc(-c2ccc(=O)oc2-c2cc(OC)c(OC)c(OC)c2)cc1O | < 0.0149 | 0.104 | 0.0689 µM | > 100 µM | < 0.0402 µM | > 100 µM | – | > 100 µM | 0.0199 µM | > 100 µM | 0.0157 µM | > 100 µM | 0.0297 µM | – | 0.036 µM | > 100 µM | – | > 100 µM | 0.0307 µM | > 100 µM
16 | c1ccc(CN2CCC3(CC2)ONC2=NCCN23)cc1 | 96.3 | > 100 | 54.9 µM | > 100 µM | 70.8 µM | > 100 µM | > 100 | > 100 µM | > 100 µM | > 100 µM | > 100 µM | > 100 µM | > 100 µM | > 100 µM | 18.2 µM | > 100 µM | 29.3 | 59.1 µM | 60.8 µM | > 100 µM
17 | O=C(Oc1ccccc1Cl)c1cccnc1Nc1ccnc(C(F)(F)F)c1 | 13.4 | 39.8 | 8.79 µM | 23.7 µM | 6.13 µM | 18.7 µM | 8.29 | 41.1 µM | 19 µM | 37 µM | 21.3 µM | 52.5 µM | 15.7 µM | 30.4 µM | 16.5 µM | 62.8 µM | 35.2 | > 100 µM | 36.9 µM | > 100 µM
18 | CCCCCCCCOC(=O)c1cc(O)c(O)c(O)c1 | 2.52 | 18.2 | 2.63 µM | 11.5 µM | 3.27 µM | 15.3 µM | 1.74 | 9.25 µM | 4.77 µM | 20 µM | 2.23 µM | 8.47 µM | 2.84 µM | 14 µM | 1.52 µM | 10.2 µM | 0.686 | 15.6 µM | 7.28 µM | 28 µM
19 | CCCCCCCCCCCCCCCC[N+](C)(C)C | 1.49 | 3.18 | 0.292 µM and 1.46 µM | 1.51 µM and 3.8 µM | 0.258 µM and 1.43 µM | 1.16 µM and 3.38 µM | 1.8 | 5.08 µM | 0.198 µM and 1.33 µM | 0.54 µM and 3.07 µM | 0.305 µM and 0.716 µM | 1.36 µM and 2.38 µM | 0.233 µM and 1.4 µM | 0.665 µM and 2.91 µM | 1.6 µM and 11.9 µM | 6.53 µM and 31.6 µM | 0.0918 | 0.353 µM | 0.314 µM and 2.12 µM | 1.35 µM and 6.2 µM
